Data from patent US8071764B2, “Compounds of reverse turn mimetics and the use thereof (2)” (Choongwae Pharma Corporation, priority 2008, dated 2011).
Where two headings read alike, the source gives them in different places.

Tests used:
[1] = biological target: T1, cDNA-expressed human hepatic CYP3A4 (Homo sapiens, UniProt P08684); test: P450 CYP3A4 inhibitory activity screening (fluorescent assay, BFC substrate); type: in vitro ADME
T1 construct: purchased BD Gentest 456202
Experimental: Assay was conducted in a 200 μL volume in 96-well microtiter plates using cDNA-expressed human hepatic CYP3A4 (supersome, BD Gentest™ #456202). 7-Benzyloxy-4-trifluoromethyl-coumarin (BFC) was used as a substrate for CYP3A4. Test articles and substrate BFC were dissolved in 100% acetonitrile. The final volume of acetonitrile in the incubation mixture was less than 1% (volume/volume). Potassium phosphate buffer (pH 7.4, final concentration 0.1 M), MgCl2 (final concentration 8.3 mM), EDTA (final concentration 1.67 mM), a test article stock solution, a CYP3A4 supersome and NADPH (final concentration 0.25 mM) were added to each well. The reaction was initiated by the addition of substrate (BFC, final concentration 30 µM) after a 10 min pre-incubation at 37° C. After 10 min incubation at 37° C., the reaction was terminated by the addition of […] of acetonitrile:0.5 M Tris-base=4:1 (volume/volume). Thereafter, Fluorescent signal was measured using a fluorometer. BFC metabolite, 7-hydroxy-4-trifluoromethyl-coumarin, was measured using an excitation wavelength of 409 nm and an emission wavelength of 530 nm.

Wnt signaling = test: TopFlash reporter gene bioassay in SW480 cells; type: cell-based; settings: Homo sapiens
Experimental: Inhibition activity against Wnt signaling was measured by the TopFlash reporter. The lower IC50 value means the higher inhibition activity.
TopFlash reporter gene Bioassay for the measurement of IC50 against SW480 cells
The test compound (Compound A) used in this example was prepared in Preparation Example 2. SW480 cells were transfected with the usage of Superfect™ transfect reagent (Qiagen, 301307). Cells were trypsinized briefly 1 day before transfection and plated on 6 well plate (5×10^5 cells/well) so that they were 50-80% confluent on the day of transfection.
Four microgram (TopFlash) and one microgram (pRL-null) of DNAs were diluted in 150 μl of serum-free medium, and 30 μl of Superfect™ transfect reagent was added. The DNA-Superfect mixture was incubated at room temperature for 15 min, and then, 1 ml of 10% FBS DMEM was added to this complex for an additional 3 hours of incubation. While complexes were forming, cells were washed with PBS twice without antibiotics.
The DNA-Superfect™ transfect reagent complexes were applied to the cells before incubating at 37° C. at 5% CO2 for 3 hours. After incubation, recovery medium with 10% FBS was added to bring the final volume to 1.18 ml. After 3 hours incubation, the cells were harvested and reseeded to a 96 well plate (3×10^4 cells/well). After overnight incubation at 37° C. at 5% CO2, the cells were treated with Compound A for 24 hours. […]

MV-4-11 cells = test: Cell growth inhibition assay on AML cancer cells; type: cell-based; settings: Homo sapiens, MV4-11, 72 hours
Experimental: Cell growth Inhibition assay was performed to investigate the rate of inhibition of cell proliferation by the test compounds. MV-4-11 (human, Acute Myeloid Leukemia cell line) cells were cultured in Iscove's modified Dulbecco's medium (IMDM) including 10% fetal bovine serum (FBS), 1× penicillin/streptomycin (10,000 units/ml Penicillin, […] Streptomycin in 0.85% NaCl). MV-4-11 cells were harvested with IMDM medium and 5×10^4 cells/well were transferred to each well of 96 well culture plates (Nunc, #167008). The test compounds were treated with the serial dilution and duplicated for each concentration. For the serial dilution, the test compounds were repeatedly diluted with the same volume of media onto 96-well assay block (costar, #3956). After the dilution, each compound was added to each well. The background absorbance was also measured during the test compounds treatment by adding the IMDM media in replacement of test compound to the negative control plate. The plates were incubated for 3 days (72 hours) at 37° C. in the humidified incubator containing 5% CO2. On the last day, 20 μL of CellTiter 96 Aqueous One Solution (Promega #G3581) was added to the culture in each well and the plates were incubated for a few hours at 37° C. in the humidified incubator containing 5% CO2. After the incubation, the absorbance of each cell was measured at 490 nm using an EnVision (Perkinelmer, USA). The […] values were calculated using a Prism 3.0 program.

[2] = MV-4-11 cells, FIG. 4, read-out: GI50
[3] = MV-4-11 AML cells, read-out: MV-4-11, GI50
[4] = fluorescent assay, read-out: CYP3A4 inhibition, IC50 (μM) fluorescent assay

T1 sequence (P08684 whole entry): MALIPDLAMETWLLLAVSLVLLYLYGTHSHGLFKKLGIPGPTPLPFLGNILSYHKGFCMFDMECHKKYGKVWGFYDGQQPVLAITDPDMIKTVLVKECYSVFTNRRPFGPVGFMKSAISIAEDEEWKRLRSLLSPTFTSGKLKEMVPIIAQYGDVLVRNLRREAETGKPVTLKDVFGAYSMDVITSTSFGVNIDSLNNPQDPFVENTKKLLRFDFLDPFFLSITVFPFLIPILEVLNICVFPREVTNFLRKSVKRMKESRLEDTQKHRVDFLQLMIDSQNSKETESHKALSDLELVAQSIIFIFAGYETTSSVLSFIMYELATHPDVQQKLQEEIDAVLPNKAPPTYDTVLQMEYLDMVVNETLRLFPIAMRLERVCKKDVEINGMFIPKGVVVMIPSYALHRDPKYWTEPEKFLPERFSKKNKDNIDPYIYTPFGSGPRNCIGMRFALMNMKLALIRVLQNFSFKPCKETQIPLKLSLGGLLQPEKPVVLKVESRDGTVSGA

Structure (SMILES) | GI50 (MV-4-11 cells; [3]) | IC50 [1, 4] | further results
C=CCN1CC(=O)N2[C@@H](Cc3ccc(O)cc3)C(=O)N(Cc3ccc4nn(C)nc4c3)C[C@@H]2N1C(=O)NCc1ccccc1 [Compound A, 2-allyl-6-(4-hydroxy-benzyl)-8-(2-methyl-2H-benzotriazol-5-ylmethyl)-4,7-dioxo-hexahydro-pyrazino[2,1-c][1,2,4]triazine-1-carboxylic acid benzylamide] | – | – | inhibition of a CYP3A4 enzyme (in words) ([1]; FIG. 2): weak inhibition; IC50 ([1]; Table 6, FIG. 2, read-out: IC50 against CYP3A4 activity): 19.2 µM; IC50 (Wnt signaling; SW480 cells, TopFlash, 24 hours treatment, FIG. 3, read-out: IC50 of Compound A for SW480 cells): 1 ± 0.254 µM; GI50 (MV-4-11 cells; [2]): 262 nM
C=CCN1CC(=O)N2[C@@H](Cc3ccc(O)cc3)C(=O)N(Cc3cccc4nnn(CC(=O)N(C)C)c34)C[C@@H]2N1C(=O)NCc1ccccc1 [compound 8] | 1920 nM | – | –
C=CCN1CC(=O)N2[C@@H](Cc3ccc(O)cc3)C(=O)N(Cc3ccc4nn(C)nc4c3)C[C@@H]2N1C(=O)NCc1ccccc1 [compound 1] | 260 nM | 19.2 µM | IC50 (Wnt signaling; SW480, TopFlash reporter gene assay, read-out: RGA, IC50 (μM) TopF): 1 ± 0.25 µM
C=CCN1CC(=O)N2[C@@H](Cc3ccc(O)cc3)C(=O)N(Cc3cccc4nnn(CC(=O)NCCOC)c34)C[C@@H]2N1C(=O)NCc1ccccc1 [compound 9] | 1850 nM | – | –
C=CCN1CC(=O)N2[C@@H](Cc3ccc(O)cc3)C(=O)N(Cc3cccc4nnn(CC(=O)NCCOC)c34)C[C@@H]2N1C(=O)NCc1ccccc1 [compound 8] | – | 46.9 µM | –
C=CCN1CC(=O)N2[C@@H](Cc3ccc(O)cc3)C(=O)N(Cc3cccc4nnn(CC(=O)O)c34)C[C@@H]2N1C(=O)NCc1ccccc1 [compound 3] | – | > 50 µM | –
C=CCN1CC(=O)N2[C@@H](Cc3ccc(O)cc3)C(=O)N(Cc3cccc4c3nnn4CC(N)=O)C[C@@H]2N1C(=O)NCc1ccccc1 [compound 12] | 560 nM | – | –
C=CCN1CC(=O)N2[C@@H](Cc3ccc(O)cc3)C(=O)N(Cc3cccc4nnn(CC(=O)N5CCN(C)CC5)c34)C[C@@H]2N1C(=O)NCc1ccccc1 [compound 5] | 2970 nM | – | –
C=CCN1CC(=O)N2[C@@H](Cc3ccc(O)cc3)C(=O)N(Cc3cccc4nnn(CC(=O)OCC)c34)C[C@@H]2N1C(=O)NCc1ccccc1 [compound 3] | 710 nM | – | –
C=CCN1CC(=O)N2[C@@H](Cc3ccc(O)cc3)C(=O)N(Cc3cccc4c3nnn4CC(=O)NCc3ccncc3)C[C@@H]2N1C(=O)NCc1ccccc1 [compound 14] | 600 nM | – | –
C=CCN1CC(=O)N2[C@@H](Cc3ccc(O)cc3)C(=O)N(Cc3cccc4nnn(CC(=O)N(C)C)c34)C[C@@H]2N1C(=O)NCc1ccccc1 [compound 7] | – | 41.1 µM | –
C=CCN1CC(=O)N2[C@@H](Cc3ccc(O)cc3)C(=O)N(Cc3cccc4nnn(CC(N)=O)c34)C[C@@H]2N1C(=O)NCc1ccccc1 [compound 12] | – | 33.2 µM | –
C=CCN1CC(=O)N2[C@@H](Cc3ccc(O)cc3)C(=O)N(Cc3cccc4c3nnn4CC(=O)N3CCOCC3)C[C@@H]2N1C(=O)NCc1ccccc1 [compound 7] | 370 nM | – | –
C=CCN1CC(=O)N2[C@@H](Cc3ccc(O)cc3)C(=O)N(Cc3cccc4c3nnn4CC(N)=O)C[C@@H]2N1C(=O)NCc1ccccc1 [Compound C] | – | – | GI50 (MV-4-11 cells; [2]): 560 nM
C=CCN1CC(=O)N2[C@@H](Cc3ccc(O)cc3)C(=O)N(Cc3cccc4c3nnn4CC(=O)O)C[C@@H]2N1C(=O)NCc1ccccc1 [compound 6] | – | > 50 µM | –
C=CCN1CC(=O)N2[C@@H](Cc3ccc(O)cc3)C(=O)N(Cc3cccc4c3nnn4CC(=O)OCC)C[C@@H]2N1C(=O)NCc1ccccc1 [compound 5] | – | 7.4 µM | –
C=CCN1CC(=O)N2[C@@H](Cc3ccc(O)cc3)C(=O)N(Cc3cccc4c3nnn4CC(=O)OCC)C[C@@H]2N1C(=O)NCc1ccccc1 [compound 6] | 650 nM | – | –
C=CCN1CC(=O)N2[C@@H](Cc3ccc(O)cc3)C(=O)N(Cc3cccc4nnn(CC(=O)N5CCOCC5)c34)C[C@@H]2N1C(=O)NCc1ccccc1 [compound 4] | 930 nM | 6.23 µM | –
C=CCN1CC(=O)N2[C@@H](Cc3ccc(O)cc3)C(=O)N(Cc3cccc4c3nnn4CC(=O)NC)C[C@@H]2N1C(=O)NCc1ccccc1 [compound 13] | – | 32.4 µM | –
C=CCN1CC(=O)N2[C@@H](Cc3ccc(O)cc3)C(=O)N(Cc3cccc4nnn(CC(N)=O)c34)C[C@@H]2N1C(=O)NCc1ccccc1 [compound 13] | 3270 nM | – | –
C=CCN1CC(=O)N2[C@@H](Cc3ccc(O)cc3)C(=O)N(Cc3cccc4c3nnn4CC(=O)NC)C[C@@H]2N1C(=O)NCc1ccccc1 [compound 15] | 180 nM | – | –
C=CCN1CC(=O)N2[C@@H](Cc3ccc(O)cc3)C(=O)N(Cc3cccc4c3nnn4CC(=O)N(C)C)C[C@@H]2N1C(=O)NCc1ccccc1 [compound 9] | – | 38 µM | –
